Patent US20260091012A1, “Methods Of Treating Meduloblastoma With Thyroid Hormone” (Institute For Cancer Research d/b/a The Research Institute …, priority 2022, published 2026)

Tests used:
MB ptch−/− cells = assay: EdU incorporation, proliferation of MB ptch−/− cells; format: cell-based, mouse; details: NB-B22 cultured MB ptch−/− cells, different concentrations of T3, 48 hours; inhibition concentration dependent
Source text: (§1) MB cells were isolated from Math1-Cre/Ptch1^fl/fl, Math1-Cre/Ptch1^fl/fl/Cas9 and SmoM2 tumor-bearing mice at 6 to 8 weeks of age, respectively. Tumor tissue was dissociated in a papain solution to obtain a single-cell suspension and then centrifuged through a 35% and 65% Percoll gradient. Cells from the 35% to 65% interface were suspended in Dulbecco's PBS (DPBS) plus 0.5% BSA. Cells were then suspended in NB-B22 (B22 supplement followed protocol in Jacob Hanna's lab) and plated on poly-D-lysine (PDL)-coated coverslips (BD Biosciences). D283, D341 and MB-shh cell lines were cultured in DMEM with 10% fetal bovine serum, 1% Pen/Strep and 2 mM L-glutamine (Invitrogen).
(§2) GDC0449 (50 mg/kg) diluted using MCT and administrated to mice by oral gavage once a day. […] Log-rank survival analyses were performed in GraphPad Prism 9.
(§3) The EdU incubated cells were cultured at 1 μM in culture medium for 1 hour. 4% PFA was used to fix the cells for 10 minutes. The cells were incubated with the staining solution for 20 minutes in the dark. The cells were washed with PBST for 5 minutes/time for 3 times.
The inhibition was concentration dependent. The percentage of EdU+ cells in the culture were quantified (see, FIG. 1, Panel B). DAPI was used to counterstain cell nuclei.

MB cells = assay: Immunostaining of differentiation marker MAP2 in MB cells; format: cell-based, mouse; details: MB cells treated by T3 for 48 hours
Method: Immunofluorescent staining of cells was carried out according to standard methods. Briefly, cells were blocked and permeabilized for 1 hour with PBS containing 0.1% Triton X-100 and 10% normal goat serum, stained with primary antibodies (1:400) overnight at 4° C. and incubated with secondary antibodies (1:500) for 1 hour. Cells were counterstained with DAPI and mounted with Fluoromount-G (Southern Biotech) before being visualized using a Nikon Eclipse Ti microscope.

[1] = tested on: Math1-Cre/Ptch1^fl/fl tumor mice; assay: Survival and tumor markers in Math1-Cre/Ptch1fl/fl tumor mice; format: in vivo, mouse
Method: (§4) Math1-Cre mice, Ptch1^fl/fl mice, R26-SmoM2 mice, Math1-CreER mice, CAG-Cas9 mice and were purchased from the Jackson Laboratory. All mice were bred and genotyped as recommended by the Jackson Laboratory. CB17/SCID mice were bred in the Fox Chase Cancer Center Laboratory Animal Facility (LAF).
as §2

[2] = tested on: Shh type PDX-luciferase cells; assay: Human shh type MB PDX-luciferase growth in cerebellum of SCID mice (bioluminescence); format: in vivo; details: SCID mice treated by T3 for 3 weeks vs untreated controls
Method: as §2
(§5) MB cells were stereotaxically injected into the cerebellum of 6- to 8-week-old SCID mice. Before transplantation, MB cells were infected with lentivirus carrying firefly luciferase for 24 hours. For transplantation with MB cells after the virus infection, the cell suspension was centrifuged at 1000 rpm for 5 minutes to remove the supernatant. 1×10^6 cells (based on Trypan blue staining) were injected into the cerebellum of each mouse. Animals were monitored weekly using in vivo bioluminescence imaging.

SmoM2 tumor mice = assay: Survival and tumor markers in SmoM2 tumor mice; format: in vivo, mouse
Method: as §4, §2
Conversely, pHH3, a cell proliferation maker, was decreased in T3-treated mice tumor tissues (see, FIG. 5, Panel B).

Group3 (Ms)MB cells = assay: EdU incorporation, proliferation of MB group3 (Mouse) cells; format: cell-based; details: T3, 72 hours
Method: as §3
(§6) The percentage of EdU+ cells in the culture was quantified (see, FIG. 6, Panel A). […] The percentage of EdU+ cells in the culture was quantified (see, FIG. 6, Panel B). […] The percentage of EdU+ cells in the culture were quantified (see, FIG. 6, Panel C). […] Thus, thyroid hormone may be used to treat different type of medulloblastoma.

D283 = assay: EdU incorporation, proliferation of human MB group3 cell line D283; format: cell-based; details: D283, T3, 72 hours
Source text: as §1, §3, §6

D341 = assay: EdU incorporation, proliferation of human MB group3 cell line D341; format: cell-based; details: D341, T3, 72 hours
Source text: as §1, §3, §6

[3] = tested on: MB cells isolated from Math1-Cre/Ptch1^fl/fl tumor mice; assay: Cell Counting Kit-8 (CCK8) assay of MB cells, T3 and cisplatin; format: cell-based, mouse
Method: MB cells were treated with vehicle (DMSO) as a control. […] The survival of MB cells was measured by Cell Counting Kit-8 (CCK8) following the treatment.

RCMB28 cells = tested on: RCMB28 cells
Method: as §2, §5
G3-MB PDOXs were generated by intracranial transplantation of RCMB28 cells transduced with a luciferase expressing construct.

[4] = T3 200 ng/g i.p. twice a day vs without T3
[5] = T3-treated mice, immunohistochemistry

Compound	proliferation of medulloblastoma cells (percentage of EdU+ cells) (MB ptch−/− cells)	MAP2 expression (differentiation marker) (MB cells)	mice survival [1, 4]	tumor progression in vivo ([1]; T3-treated mice)	NeuN (differentiation marker) expression in tumor tissues [1, 5]	pHH3 (cell proliferation marker) in tumor tissues [1, 5]	MB growth (in vivo bioluminescence) [2]	mice survival (SmoM2 tumor mice; [4])	NeuN (differentiation marker) expression in tumor tissues (SmoM2 tumor mice; [5])	pHH3 (cell proliferation marker) in tumor tissues (SmoM2 tumor mice; [5])	proliferation of group3 tumor cells (percentage of EdU+ cells) (Group3 (Ms)MB cells)	proliferation of group3 tumor cells (percentage of EdU+ cells) (D283)	proliferation of group3 tumor cells (percentage of EdU+ cells) (D341)	MB cell proliferation (CCK8) ([3]; T3 alone at two concentrations vs vehicle (DMSO))	survival of recipient mice (RCMB28 cells; T3 i.p. compared with PBS treatment, p<0.01)	tumor progression in recipient mice (RCMB28 cells; T3 i.p. vs PBS, after tumors were established)	median survival (RCMB28 cells; T3 i.p., PBS treatment 15 days, p<0.01)	cell proliferation / survival of MB cells (CCK8) ([3]; cisplatin alone at seven different concentrations vs vehicle (DMSO))
N[C@@H](Cc1cc(I)c(Oc2ccc(O)c(I)c2)c(I)c1)C(=O)O [T3, triiodothyronine]	significantly inhibited	increased	prolonged	repressed tumor progression	enhanced expression	decreased	significantly inhibited	prolonged	enhanced expression	decreased	significantly inhibited	significantly inhibited	significantly inhibited	decreased	significantly prolonged	significantly repressed	undefined	
N.N.[Cl][Pt][Cl] [cisplatin]																		inhibited cell proliferation significantly except 31.23 nM and 62.5 nM
